This assay deals with MAP4K-1 enzyme (Homo sapiens, UniProt Q92918). Kind of assay: FRET one step binding assay (tracer displacement). Conditions: for inhibition at 1 µM / % Inhibition at 1 μM: 1 μM compound; for inhibition at 10 µM / % Inhibition at 10 μM: 10 μM compound. Here is the method: This is a one step binding assay based on the binding and displacement of the labeled tracer, where compound addition is followed by addition of the anti-GST tagged europium (Eu) as the donor and Alexa Fluor-labeled tracer as the acceptor.
Test compounds were dissolved in dimethylsulfoxide (DMSO) to prepare 10.0 mM stock solutions and diluted to the desired concentration. The final concentration of DMSO in the reaction was 3% (v/v). The assay mixture was prepared by mixing 2 nM of the Eu-Anti-GST Antibody and 5 nM MAP4K-1 enzyme in the Kinase buffer containing 50 mM HEPES (pH 7.5), 10 mM MgCl2, 1 mM EGTA, 0.01% Brij-35 with or without the desired concentration of the compound. The reaction was incubated on ice for 15 min. […] After shaking for 5 min the reaction was further incubated for 1 hour at room temperature and this was kept at 4° C. and read on ARTEMIS reader as per the kit instructions (Thermo). […] The activity was calculated as percent of control reaction. IC50 values were calculated from dose response curve by nonlinear regression analysis using GraphPad Prism software.

Counter-ions that a name gives are not always drawn. Like-named read-outs stand apart in the source and are kept apart here.

Sequence of MAP4K-1 enzyme (Q92918 whole entry): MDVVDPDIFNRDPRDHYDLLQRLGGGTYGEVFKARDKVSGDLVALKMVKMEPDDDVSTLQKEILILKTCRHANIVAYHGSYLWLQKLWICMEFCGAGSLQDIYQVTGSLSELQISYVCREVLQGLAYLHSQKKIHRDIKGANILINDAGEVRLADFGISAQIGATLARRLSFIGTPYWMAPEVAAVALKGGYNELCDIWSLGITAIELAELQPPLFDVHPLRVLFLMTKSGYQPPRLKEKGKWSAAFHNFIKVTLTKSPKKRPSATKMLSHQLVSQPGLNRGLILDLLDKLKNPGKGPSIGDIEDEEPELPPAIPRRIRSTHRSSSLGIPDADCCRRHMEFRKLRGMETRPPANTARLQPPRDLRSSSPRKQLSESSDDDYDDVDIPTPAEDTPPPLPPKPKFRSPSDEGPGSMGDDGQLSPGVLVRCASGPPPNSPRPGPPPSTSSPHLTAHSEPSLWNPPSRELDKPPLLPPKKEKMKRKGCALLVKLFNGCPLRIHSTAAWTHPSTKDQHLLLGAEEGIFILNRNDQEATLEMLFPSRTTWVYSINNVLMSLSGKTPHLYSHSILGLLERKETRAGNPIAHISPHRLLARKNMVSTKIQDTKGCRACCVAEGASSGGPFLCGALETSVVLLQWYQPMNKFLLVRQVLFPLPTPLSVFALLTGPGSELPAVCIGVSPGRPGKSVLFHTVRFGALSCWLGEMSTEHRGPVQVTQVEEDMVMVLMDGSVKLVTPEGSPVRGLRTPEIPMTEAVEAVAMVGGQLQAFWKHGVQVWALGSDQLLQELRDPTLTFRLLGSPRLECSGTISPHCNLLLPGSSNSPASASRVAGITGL

What is called inhibition is the change of the read-out against control, counted positive when it falls. High values mean strong suppression, low ones little suppression. The term IC50 denotes the concentration at which inhibition is half-maximal. For the molecule `COc1cc2c(cc1Nc1ncc(Cl)c(Nc3ccc(OS(=O)(=O)F)cc3P(C)(C)=O)n1)CN(CC(F)F)CC2` [Example 8, 4-((5-Chloro-2-((2-(2,2-difluoroethyl)-6-methoxy-1,2,3,4-tetrahydroisoquinolin-7-yl)amino)pyrimidin-4-yl)amino)-3-(dimethylphosphoryl)phenyl sulfurofluoridate dihydrochloride], the inhibition at 1 µM stood at 63.7% and at 10 µM the inhibition was 80%. This molecule gave an IC50 (IC50 (nM)) of less than 50 nM.
For `CCN1CCc2cc(OC)c(Nc3ncc(Cl)c(Nc4ccc(OS(=O)(=O)F)cc4P(C)(C)=O)n3)cc2C1` [Example 9, 4-((5-Chloro-2-((2-ethyl-6-methoxy-1,2,3,4-tetrahydroisoquinolin-7-yl)amino)pyrimidin-4-yl)amino)-3-(dimethylphosphoryl) phenyl sulfofluoridate dihydrochloride] the same measures were 78.5%, 78.8% and less than 50 nM.
As to `CN1CCc2cc(OC(F)F)c(Nc3ncc(Cl)c(Nc4ccc(OS(=O)(=O)F)cc4P(C)(C)=O)n3)cc2C1` [Example 10, 4-((5-Chloro-2-((6-(difluoromethoxy)-2-methyl-1,2,3,4-tetrahydroqisoquinolin-7-yl)amino)pyrimidin-4-yl)amino)-3-(dimethylphosphoryl)phenyl sulfurofluoridate dihydrochloride], the inhibition at 1 µM stood at 92.3% and the inhibition at 10 µM is 89%. The IC50 (IC50 (nM)) is less than 50 nM.
For `COc1cc2c(cc1Nc1ncc(Cl)c(Nc3ccc(OS(=O)(=O)F)cc3P(C)(C)=O)n1)C(C)(C)N(C)CC2` [Example 11, 4-((5-Chloro-2-((6-methoxy-1,1,2-trimethyl-1,2,3,4-tetrahydroisoquinolin-7-yl)amino)pyrimidin-4-yl)amino)-3-(dimethylphosphoryl)phenyl sulfurofluoridate dihydrochloride] the same measures were 75.1%, 87.2% and less than 50 nM.
Taken in the same sequence, the figures for `COc1cc2c(cc1Nc1ncc(Cl)c(Nc3ccc(OS(=O)(=O)F)cc3P(C)(C)=O)n1)CN(CCF)CC2` [Example 13, 4-((5-Chloro-2-((2-(2-fluoroethyl)-6-methoxy-1,2,3,4-tetrahydroisoquinolin-7-yl)amino)pyrimidin-4-yl)amino)-3-(dimethylphos-phoryl)phenylsulfofluoridate dihydrochloride] were 79.7%, 81% and less than 50 nM.
Taken in the same sequence, the figures for `COc1cc2c(cc1Nc1ncc(Cl)c(Nc3c(F)cc(OS(=O)(=O)F)cc3P(C)(C)=O)n1)CN(C)CC2` [Example 14, 4-((5-Chloro-2-((6-methoxy-2-methyl-1,2,3,4-tetrahydroisoquinolin-7-yl)amino)pyrimidin-4-yl)amino)-3-(dimethylphosphoryl)-5-fluorophenylsulfurofluoridate dihydrochloride] were 89.7%, 93.3% and less than 50 nM.
The molecule `COc1cc2c(cc1Nc1ncc(Cl)c(Nc3c(C)cc(OS(=O)(=O)F)cc3P(C)(C)=O)n1)CN(C)CC2` [Example 15, 4-((5-Chloro-2-((6-methoxy-2-methyl-1,2,3,4-tetrahydroisoquinolin-7-yl)amino)pyrimidin-4-yl)amino)-3-(dimethylphosphoryl)-5-methylphenyl sulfurofluoridate dihydrochloride] yielded an inhibition at 1 µM of 78.6% and an inhibition at 10 µM of 91.8%. Further, the IC50 (IC50 (nM)) was greater than 500 nM.
As to `COc1cc2c(cc1Nc1ncc(Cl)c(Nc3ccc(OS(=O)(=O)F)cc3P(C)(C)=O)n1)CN(C1COC1)CC2` [Example 16, 4-((5-Chloro-2-((6-methoxy-2-(oxetan-3-yl)-1,2,3,4-tetrahydroisoquinolin-7-yl)amino)pyrimidin-4-yl)amino)-3-(dimethylphosphoryl)phenyl sulfurofluoridate dihydrochloride], 1 µM produced 87.3% inhibition and testing at 10 µM gave an inhibition of 86%. The IC50 (IC50 (nM)) was less than 50 nM.
Taken in the same sequence, the figures for `COc1cc2c(cc1Nc1ncc(Cl)c(Nc3ccc(OS(=O)(=O)F)cc3P(C)(C)=O)n1)C(=O)N(C)CC2` [Example 17, 4-((5-Chloro-2-((6-methoxy-2-methyl-1-oxo-1,2,3,4-tetrahydroisoquinolin-7-yl)amino)pyrimidin-4-yl)amino)-3-(dimethylphosphoryl)phenyl sulfurofluoridatehydrochloride] were 86.6%, 90.2% and less than 50 nM.
For `COc1cc2c(cc1Nc1ncc(Cl)c(Nc3cc(OS(=O)(=O)F)ccc3P(C)(C)=O)n1)CN(C)CC2` [Example 18, 3-((5-Chloro-2-((6-methoxy-2-methyl-1,2,3,4-tetrahydroisoquinolin-7-yl)amino)pyrimidin-4-yl)amino)-4-(dimethylphosphoryl)phenyl sulfurofluoridate dihydrochloride] the same measures were 87.3%, 83.2% and less than 50 nM.
Taken in the same sequence, the figures for `COc1cc2c(cc1Nc1ncc(Cl)c(Nc3cccc(OS(=O)(=O)F)c3P(C)(C)=O)n1)CN(C)CC2` [Example 19, 3-((5-Chloro-2-((6-methoxy-2-methyl-1,2,3,4-tetrahydroisoquinolin-7-yl)amino)pyrimidin-4-yl)amino)-2-(dimethylphosphoryl) phenylsulfofluoridate dihydrochloride] were 76.6%, 78.2% and less than 50 nM.
`COc1cc2c(cc1Nc1ncc(Cl)c(Nc3ncc(OS(=O)(=O)F)cc3P(C)(C)=O)n1)CN(C)CC2` [Example 20, 6-((5-Chloro-2-((6-methoxy-2-methyl-1,2,3,4-tetrahydroisoquinolin-7-yl)amino)pyrimidin-4-yl)amino)-5-(dimethylphosphoryl)pyridin-3-yl sulfofluoridate dihydrochloride]: 1 µM produced 80.1% inhibition and the inhibition at 10 µM came to 75.5%. This molecule gave an IC50 (IC50 (nM)) of less than 50 nM.
Taken in the same sequence, the figures for `COc1cc2c(cc1Nc1ncc(Cl)c(Nc3ccc(OS(=O)(=O)F)nc3P(C)(C)=O)n1)CN(C)CC2` [Example 21, 5-((5-Chloro-2-((6-methoxy-2-methyl-1,2,3,4-tetrahydroisoquinolin-7-yl)amino)pyrimidin-4-yl)amino)-6-(dimethylphosphoryl)pyridin-2-yl sulfofluoridate dihydrochloride] were 79.2%, 81.6% and less than 50 nM.
In general, % Inhibition refers to the percentage by which the read-out fell short of the control. Read a low % Inhibition as a weak effect. Turning to `COc1nc2c(cc1Nc1ncc(Cl)c(Nc3ccc(OS(=O)(=O)F)cc3P(C)(C)=O)n1)CN(C)CC2` [Example 22, 4-((5-Chloro-2-((2-methoxy-6-methyl-5,6,7,8-tetrahydro-1,6-naphthyridin-3-yl)amino)pyrimidin-4-yl)amino)-3-(dimethylphosphoryl)phenyl sulfofluoridate], the “% Inhibition at 1 μM” value was 75.12% and the “% Inhibition at 10 μM” value was found to be 82.60%. The IC50 (read-out: IC50) was less than 50 nM.
For `COc1cc2c(cc1Nc1ncc(Cl)c(Nc3ccc(OS(=O)(=O)F)cc3P(C)(C)=O)n1)CN(C)C(C)(C)C2` [Example 25, 4-((5-Chloro-2-((6-methoxy-2,3,3-trimethyl-1,2,3,4-tetrahydroisoquinolin-7-yl)amino)pyrimidin-4-yl)amino)-3-(dimethylphosphoryl)phenyl sulfofluoridate dihydrochloride], the inhibition at 1 µM is 85.9% and 10 µM produced 90.7% inhibition. Under “IC50 (nM)”, this molecule displayed an IC50 of less than 50 nM.
`CN1CCc2cc(F)c(Nc3ncc(Cl)c(Nc4ccc(OS(=O)(=O)F)cc4P(C)(C)=O)n3)cc2C1` [Example 26, 4-((5-Chloro-2-((6-fluoro-2-methyl-1,2,3,4-tetrahydroisoquinolin-7-yl)amino)pyrimidin-4-yl)amino)-3-(dimethylphosphoryl)phenyl sulfofluoridate dihydrochloride] returned an inhibition at 1 µM of 75.8% and an inhibition at 10 µM of 76.5%. The molecule further returned an IC50 (IC50 (nM)) of less than 50 nM.
Taken in the same sequence, the figures for `COc1cc2c(cc1Nc1ncc(Cl)c(Nc3cc(F)c(OS(=O)(=O)F)cc3P(C)(C)=O)n1)CN(C)CC2` [Example 27, 4-((5-Chloro-2-((6-methoxy-2-methyl-1,2,3,4-tetrahydroisoquinolin-7-yl)amino)pyrimidin-4-yl)amino)-5-(dimethylphosphoryl)-2-fluorophenyl sulfofluoridate dihydrochloride] were 81.1%, 82.6% and less than 50 nM.
For `COc1cc2c(cc1Nc1ncc(Cl)c(Nc3ccc(OS(=O)(=O)F)cc3P(C)(C)=O)n1)COCC2` [Example 28, 4-((5-Chloro-2-((6-methoxyisochroman-7-yl)amino)pyrimidin-4-yl)amino)-3-(dimethylphosphoryl)phenyl sulfofluoridate hydrochloride] the same measures were 69.7%, 75.9% and less than 50 nM.
For the molecule `COc1cc2c(cc1Nc1ncc(Cl)c(Nc3cnc(OS(=O)(=O)F)cc3P(C)(C)=O)n1)CN(C)CC2` [Example 37, 5-((5-Chloro-2-((6-methoxy-2-methyl-1,2,3,4-tetrahydroisoquinolin-7-yl)amino)pyrimidin-4-yl)amino)-4-(dimethylphosphoryl)pyridin-2-ylsulfofluoridate], the “% Inhibition at 1 μM” value came to 84.45% and the “% Inhibition at 10 μM” value was found to be 84.73%. In addition, the IC50 (read-out: IC50) is less than 50 nM.

The record behind these values is patent US12577267B2, “Pyrimidine compounds for use as MAP4K1 inhibitors” (GLENMARK SPECIALITY S.A., priority 2021, dated 2026).
